# Several values for one entry are separate records, joined by “and”; a condition that tells them apart may be missing. Equal entries are not always repeated.
# Legend:
# PfCRT variant H123A = molecular target: T1, PfCRT variant H123A (Plasmodium falciparum, UniProt Q9N623, A220S/H123A/I356T/K76T/M74I/N326S/N75E/Q271E/R371I); experiment: CQ uptake assay, oocytes expressing H123A; type: cell-based
# T1 sequence (Q9N623 1-424 M74I/N75E/K76T/H123A/A220S/Q271E/N326S/I356T/R371I): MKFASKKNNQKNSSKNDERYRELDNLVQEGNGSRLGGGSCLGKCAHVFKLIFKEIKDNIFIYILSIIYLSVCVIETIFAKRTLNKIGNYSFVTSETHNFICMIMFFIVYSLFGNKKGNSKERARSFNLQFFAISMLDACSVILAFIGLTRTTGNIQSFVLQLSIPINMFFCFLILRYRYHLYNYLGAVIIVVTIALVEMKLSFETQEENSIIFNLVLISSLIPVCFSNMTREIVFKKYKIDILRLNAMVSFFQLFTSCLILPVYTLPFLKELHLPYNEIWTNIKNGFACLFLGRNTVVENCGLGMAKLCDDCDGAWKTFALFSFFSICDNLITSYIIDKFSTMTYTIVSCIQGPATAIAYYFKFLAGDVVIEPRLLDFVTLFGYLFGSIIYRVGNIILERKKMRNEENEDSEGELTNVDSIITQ
# Protocol: (§1) Site-directed mutagenesis of PfCRT^Dd2 was performed as described using the megaprimer method with overlap extension[21],[54]. The primer pairs used are listed in Supplementary Table 6. Please note that a codon-optimized and oocyte-adapted version of PfCRT^Dd2 was used[22] (Supplementary Fig. 16). The resulting DNA fragment was cloned into the SP64T expression vector and verified by sequencing.
# (§2) Oocytes were obtained as described previously. Briefly, adult (>2 years old) female X. laevis frogs (NASCO) were anesthetized in a cooled solution of ethyl 3-amino benzoate methanesulfonate (0.1%, w/v), followed by a surgical removal of parts of the ovary. The ovary lobes were carefully dissected and small pieces of oocytes were incubated in Ca^2+-free ND96 buffer (96 mM NaCl, 2 mM KCl, 1 mM MgCl2 buffered with 5 mM HEPES/NaOH, pH 7.5) supplemented with collagenase D (0.1%, w/v; Roche), BSA (0.5%, w/v), and 9 mm Na2HPO4 at 18 °C for 14-16 h while gentle shaking. After incubation, the oocytes were carefully washed several times with ND96 buffer (96 mM NaCl, 2 mM KCl, 1.8 mM CaCl2, 1 mM MgCl2 buffered with 5 mM HEPES/NaOH, pH 7.5) supplemented with 100 mg l^−1 gentamycin). Defolliculated and healthy-looking stage V-VI oocytes were manually selected for RNA microinjection. The RNA was generated as following: The codon-optimized sequences of PfCRT variants were cloned into the pSP64T expression vector. After vector linearization using the restriction endonucleases BamHI or SalI (New England Biolabs), transcription was performed using the in vitro SP6 mMessage mMachine Kit (Ambion)[34]. The obtained RNA was kept at −80 °C and diluted with nuclease-free water to a concentration of 0.6 μg μl^−1. Precision-bore glass capillary tubes (3.5-inch glass capillaries; Drummond Scientific Co.) were pulled on a vertical puller (P-87 Flaming/Brown micropipette puller, Sutter Instrument Co.), graduated, and placed on a microinjector (Nanoject II Auto-Nanoliter Injector, Drummond Scientific Co.). 50 nl of nuclease-free water alone (control oocytes) or 50 nl of 0.6 μg μl^−1 RNA were injected under stereomicroscopic control. Injected oocytes were incubated for 46–72 h at 18 °C with twice-daily buffer changes before usage in experiments.
# Drug uptake assays were performed as described previously[21],[22],[24],[34]. […] The direction of radio-labeled drug transport is here from the mostly acidic extracellular solution (pH 4.5 or 6.0, as indicated) into the oocyte cytosol (pH ∼ 7.2), which corresponds to the efflux of drug from the acidic digestive vacuole (pH 5.2) into the parasite cytoplasm (pH 7.2). The topology of PfCRT in the oolemma is such that both the N- and C-terminus face the extracellular milieu[3],[22]. In the parasite, the N- and C-terminus face the lumen of the digestive vacuole. […] For determination of the amount of drug uptake for each oocyte, the reaction medium was removed and the oocytes were washed three times with 2 ml of ice-cold ND96 buffer. Each oocyte was individually transferred to a scintillation vial containing 5% sodium dodecyl sulfate (200 μl) for lysis. […] Oocytes that were injected with water instead of RNA were analyzed in parallel, representing the uptake of a drug by diffusion and/or endogenous permeation pathways. […] The specific PfCRT-mediated uptake was determined by subtracting the corresponding background value measured in water-injected oocytes from that of PfCRT-expressing oocytes. […]
# PfCRT variant H180A = experiment: CQ uptake assay, oocytes expressing H180A; type: cell-based, Plasmodium falciparum
# Protocol: as §1, §2
# Drug uptake assays were performed as described previously[21],[22],[24],[34]. […] The direction of radio-labeled drug transport is here from the mostly acidic extracellular solution (pH 4.5 or 6.0, as indicated) into the oocyte cytosol (pH ∼ 7.2), which corresponds to the efflux of drug from the acidic digestive vacuole (pH 5.2) into the parasite cytoplasm (pH 7.2). The topology of PfCRT in the oolemma is such that both the N- and C-terminus face the extracellular milieu[3],[22]. In the parasite, the N- and C-terminus face the lumen of the digestive vacuole. CQ uptake kinetics were performed by incubating oocytes in ND96 buffer adjusted to a pH of 4.5, 5.0, 5.5, or 6.0 and supplemented with 50 nM [^3H]CQ and one of 7 different CQ concentrations (10 µM, 50 µM, 100 µM, 200 µM, 300 µM, 400 µM, 500 µM CQ). The reaction was stopped at the 60 min time point, which is in the linear uptake range[22],[34] (Supplementary Fig. 17). […] The radioactivity of each sample was measured using a liquid scintillation analyzer Tri-Carb 4910 TR (PerkinElmer). Oocytes that were injected with water instead of RNA were analyzed in parallel, representing the uptake of a drug by diffusion and/or endogenous permeation pathways. […]
# [1] = pH 4.5, single replicates, Fig 1d left
# [2] = pH 6.0, single replicates, Fig 1d left
# [3] = H180A, 50 µM CQ, 1 h, mean ± SEM
smiles,measurement,setting,value
"CCN(CC)CCCC(C)Nc1ccnc2cc(Cl)ccc12 (stereo not shown) [CQ, chloroquine]",Activity at pH 6.0,"PfCRT variant H123A; H123A, 50 µM CQ, 1 h, mean ± SEM",4.85 ± 0.43 pmol h-1 oocyte-1
same,R-value,"PfCRT variant H123A; H123A, CQ transport at pH 4.5 / pH 6.0",0.36 ± 0.09
same,H123A transport activity pH 4.5,PfCRT variant H123A; [1],1.12 pmol oocyte-1 h-1 and 2.16 pmol oocyte-1 h-1 and 1.35 pmol oocyte-1 h-1 and 2.48 pmol oocyte-1 h-1
same,H123A R-value,"PfCRT variant H123A; pH 4.5 vs pH 6.0, Fig 1d left",0.44 and 0.35 and 0.42 and 0.27 and 0.52
same,H123A transport activity pH 6.0,PfCRT variant H123A; [2],6.18 pmol oocyte-1 h-1 and 3.21 pmol oocyte-1 h-1 and 5.14 pmol oocyte-1 h-1 and 4.96 pmol oocyte-1 h-1 and 4.77 pmol oocyte-1 h-1
same,Activity at pH 4.5,PfCRT variant H180A; [3],1.14 ± 0.27 pmol h-1 oocyte-1
same,Activity at pH 6.0,PfCRT variant H180A; [3],3.12 ± 0.12 pmol h-1 oocyte-1
same,R-value,"PfCRT variant H180A; H180A, CQ transport at pH 4.5 / pH 6.0",0.36 ± 0.09
same,H180A transport activity pH 4.5,PfCRT variant H180A; [1],0.55 pmol oocyte-1 h-1 and 1.69 pmol oocyte-1 h-1 and 1.17 pmol oocyte-1 h-1
same,H180A transport activity pH 6.0,PfCRT variant H180A; [2],2.90 pmol oocyte-1 h-1 and 3.04 pmol oocyte-1 h-1 and 3.41 pmol oocyte-1 h-1
